Reference: PubChem BioAssay AID1259407 (Chemical Carcinogenesis Research Information System (CCRIS), 2018)
Calls of active or inactive are those of the source. The rule behind the calls is not given here.

Test system: CCRIS mutagenicity, Ames/micronucleus/aberration tests
Experiment: CCRIS mutagenicity studies
[1] = Test System: AMES SALMONELLA TYPHIMURIUM, Strain/Indicator: TA98, Metabolic Activation: NONE, Method: STANDARD PLATE
[2] = Test System: AMES SALMONELLA TYPHIMURIUM, Strain/Indicator: TA100, Metabolic Activation: NONE, Method: STANDARD PLATE
[3] = Test System: AMES SALMONELLA TYPHIMURIUM, Strain/Indicator: TA98, Metabolic Activation: NONE, Method: PREINCUBATION

Nc1nc2ccc([N+](=O)[O-])cc2s1
mutagenic call (Test System: AMES SALMONELLA TYPHIMURIUM, Strain/Indicator: TA98, Metabolic Activation: HAMSTER, LIVER, S-9, AROCLOR 1254, Method: STANDARD PLATE): active; positive
mutagenic call [1]: active; positive
mutagenic call (Test System: AMES SALMONELLA TYPHIMURIUM, Strain/Indicator: TA98, Metabolic Activation: RAT, LIVER, S-9, AROCLOR 1254, Method: STANDARD PLATE): active; positive
mutagenic call (Test System: AMES SALMONELLA TYPHIMURIUM, Strain/Indicator: TA100, Metabolic Activation: HAMSTER, LIVER, S-9, AROCLOR 1254, Method: STANDARD PLATE): active; positive
mutagenic call [2]: inactive; negative
mutagenic call (Test System: AMES SALMONELLA TYPHIMURIUM, Strain/Indicator: TA100, Metabolic Activation: RAT, LIVER, S-9, AROCLOR 1254, Method: STANDARD PLATE): active; positive
mutagenic call (Test System: AMES SALMONELLA TYPHIMURIUM, Strain/Indicator: TA1535, Metabolic Activation: HAMSTER, LIVER, S-9, AROCLOR 1254, Method: STANDARD PLATE): active; positive
mutagenic call (Test System: AMES SALMONELLA TYPHIMURIUM, Strain/Indicator: TA1535, Metabolic Activation: NONE, Method: STANDARD PLATE): inactive; negative
mutagenic call (Test System: AMES SALMONELLA TYPHIMURIUM, Strain/Indicator: TA1535, Metabolic Activation: RAT, LIVER, S-9, AROCLOR 1254, Method: STANDARD PLATE): inactive; negative
mutagenic call (Test System: AMES SALMONELLA TYPHIMURIUM, Strain/Indicator: TA1537, Metabolic Activation: HAMSTER, LIVER, S-9, AROCLOR 1254, Method: STANDARD PLATE): active; positive
mutagenic call (Test System: AMES SALMONELLA TYPHIMURIUM, Strain/Indicator: TA1537, Metabolic Activation: NONE, Method: STANDARD PLATE): inactive; negative
mutagenic call (Test System: AMES SALMONELLA TYPHIMURIUM, Strain/Indicator: TA1537, Metabolic Activation: RAT, LIVER, S-9, AROCLOR 1254, Method: STANDARD PLATE): inactive; negative
mutagenic call (Test System: AMES SALMONELLA TYPHIMURIUM, Strain/Indicator: TA1538, Metabolic Activation: HAMSTER, LIVER, S-9, AROCLOR 1254, Method: STANDARD PLATE): active; positive
mutagenic call (Test System: AMES SALMONELLA TYPHIMURIUM, Strain/Indicator: TA1538, Metabolic Activation: NONE, Method: STANDARD PLATE): active; positive
mutagenic call (Test System: AMES SALMONELLA TYPHIMURIUM, Strain/Indicator: TA1538, Metabolic Activation: RAT, LIVER, S-9, AROCLOR 1254, Method: STANDARD PLATE): active; positive
mutagenic call (Test System: MOUSE LYMPHOMA, Strain/Indicator: L5178Y (TK+/TK-), Metabolic Activation: NONE, Method: SUSPENSION/PLATE): inactive; negative. reevaluation of results: negative
mutagenic call (Test System: MOUSE LYMPHOMA, Strain/Indicator: L5178Y (TK+/TK-), Metabolic Activation: RAT, LIVER, S-9, AROCLOR 1254, Method: SUSPENSION/PLATE): inactive; negative. reevaluation of results: negative

CN(C)N=Nc1ccccc1
mutagenic call (Test System: AMES SALMONELLA TYPHIMURIUM, Strain/Indicator: G46, Metabolic Activation: NONE, Method: STANDARD PLATE): active; positive
mutagenic call (Test System: AMES SALMONELLA TYPHIMURIUM, Strain/Indicator: G46, Metabolic Activation: RAT, LIVER, S-9, PHENOBARBITAL, Method: STANDARD PLATE): active; positive

Nc1ccc2nc3ccc(N)cc3nc2c1
mutagenic call [3]: inactive; negative
mutagenic call (Test System: AMES SALMONELLA TYPHIMURIUM, Strain/Indicator: TA98, Metabolic Activation: RAT, LIVER, S-9, PCB, Method: PREINCUBATION): active; positive

CC(=O)OC1Cc2c3ccc4ccccc4c3cc3ccc(C)c1c23 (stereo not drawn)
mutagenic call [1]: inactive; negative
mutagenic call [2]: active; positive

FC(Cl)(Cl)Cl
mutagenic call (Test System: AMES SALMONELLA TYPHIMURIUM, Strain/Indicator: TA98, Metabolic Activation: HAMSTER, LIVER, S-9, AROCLOR 1254 (10%), Method: PREINCUBATION): inactive; negative
mutagenic call (Test System: AMES SALMONELLA TYPHIMURIUM, Strain/Indicator: TA98, Metabolic Activation: NONE, Method: GAS EXPOSURE): inactive; negative
mutagenic call [3]: inactive; negative
mutagenic call (Test System: AMES SALMONELLA TYPHIMURIUM, Strain/Indicator: TA98, Metabolic Activation: RAT LIVER S-9, PHENOBARBITAL AND BETA-NAPHTHOFLAVONE (40%), Method: GAS EXPOSURE): inactive; negative
mutagenic call (Test System: AMES SALMONELLA TYPHIMURIUM, Strain/Indicator: TA98, Metabolic Activation: RAT, LIVER, S-9, AROCLOR 1254 (10%), Method: PREINCUBATION): inactive; negative
mutagenic call (Test System: AMES SALMONELLA TYPHIMURIUM, Strain/Indicator: TA100, Metabolic Activation: HAMSTER, LIVER, S-9, AROCLOR 1254 (10%), Method: PREINCUBATION): inactive; negative
mutagenic call (Test System: AMES SALMONELLA TYPHIMURIUM, Strain/Indicator: TA100, Metabolic Activation: NONE, Method: GAS EXPOSURE): inactive; negative
mutagenic call (Test System: AMES SALMONELLA TYPHIMURIUM, Strain/Indicator: TA100, Metabolic Activation: NONE, Method: PREINCUBATION): inactive; negative
mutagenic call (Test System: AMES SALMONELLA TYPHIMURIUM, Strain/Indicator: TA100, Metabolic Activation: RAT LIVER S-9, PHENOBARBITAL AND BETA-NAPHTHOFLAVONE (40%), Method: GAS EXPOSURE): inactive; negative
mutagenic call (Test System: AMES SALMONELLA TYPHIMURIUM, Strain/Indicator: TA100, Metabolic Activation: RAT, LIVER, S-9, AROCLOR 1254 (10%), Method: PREINCUBATION): inactive; negative
mutagenic call (Test System: AMES SALMONELLA TYPHIMURIUM, Strain/Indicator: TA1535, Metabolic Activation: HAMSTER, LIVER, S-9, AROCLOR 1254 (10%), Method: PREINCUBATION): inactive; negative
mutagenic call (Test System: AMES SALMONELLA TYPHIMURIUM, Strain/Indicator: TA1535, Metabolic Activation: NONE, Method: GAS EXPOSURE): inactive; negative
mutagenic call (Test System: AMES SALMONELLA TYPHIMURIUM, Strain/Indicator: TA1535, Metabolic Activation: NONE, Method: PREINCUBATION): inactive; negative
mutagenic call (Test System: AMES SALMONELLA TYPHIMURIUM, Strain/Indicator: TA1535, Metabolic Activation: RAT LIVER S-9, PHENOBARBITAL AND BETA-NAPHTHOFLAVONE (40%), Method: GAS EXPOSURE): inactive; negative
mutagenic call (Test System: AMES SALMONELLA TYPHIMURIUM, Strain/Indicator: TA1535, Metabolic Activation: RAT, LIVER, S-9, AROCLOR 1254 (10%), Method: PREINCUBATION): inactive; negative
mutagenic call (Test System: AMES SALMONELLA TYPHIMURIUM, Strain/Indicator: TA1537, Metabolic Activation: HAMSTER, LIVER, S-9, AROCLOR 1254 (10%), Method: PREINCUBATION): inactive; negative
mutagenic call (Test System: AMES SALMONELLA TYPHIMURIUM, Strain/Indicator: TA1537, Metabolic Activation: NONE, Method: GAS EXPOSURE): inactive; negative
mutagenic call (Test System: AMES SALMONELLA TYPHIMURIUM, Strain/Indicator: TA1537, Metabolic Activation: NONE, Method: PREINCUBATION): inactive; negative
mutagenic call (Test System: AMES SALMONELLA TYPHIMURIUM, Strain/Indicator: TA1537, Metabolic Activation: RAT LIVER S-9, PHENOBARBITAL AND BETA-NAPHTHOFLAVONE (40%), Method: GAS EXPOSURE): inactive; negative
mutagenic call (Test System: AMES SALMONELLA TYPHIMURIUM, Strain/Indicator: TA1537, Metabolic Activation: RAT, LIVER, S-9, AROCLOR 1254 (10%), Method: PREINCUBATION): inactive; negative
mutagenic call (Test System: E.COLI, Strain/Indicator: WP2UVRA, Metabolic Activation: NONE, Method: GAS EXPOSURE): inactive; negative
mutagenic call (Test System: E.COLI, Strain/Indicator: WP2UVRA, Metabolic Activation: RAT LIVER S-9, PHENOBARBITAL AND BETA-NAPHTHOFLAVONE (40%), Method: GAS EXPOSURE): inactive; negative
mutagenic call (Test System: Mouse lymphoma, Strain/Indicator: L5178Y (tk+/tk-), Metabolic Activation: None, Method: Suspension/plate): inactive; negative
mutagenic call (Test System: Mouse lymphoma, Strain/Indicator: L5178Y (tk+/tk-), Metabolic Activation: Rat, Liver, S-9, Aroclor 1254, Method: Suspension/plate): inactive; inconclusive (previous evaluation negative)

COc1cc(Oc2ccc(Cl)cc2Cl)ccc1N
mutagenic call (Test System: AMES SALMONELLA TYPHIMURIUM, Strain/Indicator: TA98, Metabolic Activation: S-9, Method: STANDARD PLATE): inactive; negative
mutagenic call (Test System: AMES SALMONELLA TYPHIMURIUM, Strain/Indicator: TA100, Metabolic Activation: S-9, Method: STANDARD PLATE): active; positive
mutagenic call (Test System: AMES SALMONELLA TYPHIMURIUM, Strain/Indicator: YG1021, Metabolic Activation: S-9, Method: STANDARD PLATE): inactive; negative
mutagenic call (Test System: AMES SALMONELLA TYPHIMURIUM, Strain/Indicator: YG1024, Metabolic Activation: S-9, Method: STANDARD PLATE): active; positive
mutagenic call (Test System: AMES SALMONELLA TYPHIMURIUM, Strain/Indicator: YG1026, Metabolic Activation: S-9, Method: STANDARD PLATE): active; positive
mutagenic call (Test System: AMES SALMONELLA TYPHIMURIUM, Strain/Indicator: YG1029, Metabolic Activation: S-9, Method: STANDARD PLATE): active; positive
